Data on three molecules can be found in patent EP4640676A1, “CRYSTAL FORM OF FLUORINE-SUBSTITUTED INDAZOLE COMPOUND AND USE THEREOF” (Sunshine Lake Pharma Co., Ltd., priority 2022, dated 2024).

A short description of data set [1]: Crystal form transformation (polymorphic transition). It counts as physicochemical. The settings on record: for crystal form transformation: in solvents such as ethanol.
The nature of data set [2]: Accelerated stability test. It counts as physicochemical. To be noted: 40°C ± 2°C / 75% ± 5% RH, 6 month.
Another data set can be described thus: Solubility test (HPLC). The settings on record: figures not given. It is filed as physicochemical. How it is done: The solubility of the present invention was determined using an Agilent 1200 High Performance Liquid Chromatograph DAD/VWD detector with an Agilent XDB-C18 model (4.6 x 50 mm, 5 µm). Detection wavelength of 266 nm, flow rate of 1.0 mL/min, the column temperature of 35 °C, mobile phase A: acetonitrile - 0.01 M ammonium acetate = 10:90 (V: V) analysis methods: acetonitrile - mobile phase A= 70:30 (V: V), running time: 10 minutes.

Data set [3] can be described thus: Hygroscopicity test by dynamic vapor sorption (DVS). It counts as physicochemical. How it is done:
The hygroscopicity of the present invention was determined using a DVS INT-Std dynamic vapor and gas sorption analyzer from Surface Measurement Systems Ltd. (UK) with the following parameters: humidity test range: 0%-95%, gas flow: 200 mL/min, temperature: 25°C, test points: one measurement point every 5% humidity increase.
An appropriate amount of the test sample was taken, and its hygroscopicity was measured using a dynamic vapor sorption (DVS) instrument. The classification criteria for hygroscopicity characteristics and moisture absorption weight gain (as per Appendix 9103 "Guidelines for Hygroscopicity Testing of Drugs" from the Chinese Pharmacopoeia 2020 Edition, test conditions: 25°C ± 1°C, 80% ± 2% relative humidity (RH)) are described in Table 3 below: Table 3 The description of the hygroscopicity feature and the definition of the hygroscopicity gain

A short description of data set [4]: Light-exposure stability test. It counts as physicochemical. The settings on record: 30 day; for Outward: colour. How it is done: (§1) • (1) High-Temperature Test: Place an appropriate amount of the test sample in a flat weighing bottle, spreading it into a thin layer ≤5 mm thick. Store at 60°C ± 2°C for 30 days. Collect samples at 0, 5, 10, and 30 days for analysis according to the key stability test items. Observe any color changes and determine purity by HPLC. • (2) High-Humidity Test: Place an appropriate amount of the test sample from one batch in a flat weighing bottle, spreading it into a thin layer ≤5 mm thick. Store at 25°C and 90% ± 5% relative humidity (RH) for 30 days. Collect samples at 0, 5, 10, and 30 days for analysis according to the key stability test items. Observe any color changes and determine purity by HPLC. • (3) Light-Exposure Test: Expose the sample to visible light (4500 lx ± 500 lx) and UV light (energy ≥0.7 W·h/m^2) for 30 days. Collect samples at 0, 5, 10, 15, and 30 days for analysis according to the key stability test items. Observe any color changes and determine purity by HPLC. • (4) Accelerated Test: Package an appropriate amount of the test sample from one batch in single-layer PE with aluminum foil. Store at 40°C ± 2°C / 75% ± 5% RH for […]. Collect samples at 0, 1, 2, 3, and 6 months for analysis according to the key stability test items. Observe any color changes and determine purity by HPLC.

The nature of data set [5]: High-humidity stability test. It counts as physicochemical. The settings on record: 25°C, 90% ± 5% RH, 30 day; for Outward: colour. How it is done: as §1
Data set [6] is described as follows: High-temperature stability test. To be noted: for Outward: colour. It counts as physicochemical. How it is done: as §1
Data set [7] can be described thus: Accelerated stability test. It counts as physicochemical. To be noted: 40°C ± 2°C / 75% ± 5% RH; for Outward: colour. How it is done: as §1
Data set [8] can be described thus: Pharmacokinetics test, oral capsules. It is filed as in vivo. The settings on record: male Beagle dogs, 5 mg/kg, figures not given. How it is done: Male Beagle dogs of 8-12 kg were divided into 3 groups, 3 dogs in each group, and capsules containing test samples were orally administered at a dose of 5 mg/kg, and blood was collected at time points of 0.25, 0.5, 1.0, 2.0, 4.0, 6.0, 8.0 and 24 h. Standard curve was plotted based on concentrations of the samples in a suitable range, the concentration of the test sample in the plasma sample was measured and quantified by AB SCIEX API4000-type LC-MS / MS at MRM mode. Pharmacokinetic parameters were calculated according to drug concentration -time curve using a noncompartmental method by WinNonLin 6.3 software.

Where [9] appears, read: 0 day, common start value of the high-temperature, high-humidity and light-exposure tests, HPLC.
Setting [10] is: 0 day, common start value of the three tests.
Where [11] appears, read: High-Temperature, 60°C ± 2°C, 30 day.

For `COC(=O)Nc1c(N)nc(-c2nn(Cc3ccccc3F)c3c(F)cccc23)nc1N` [Crystal Form I, methyl (4,6-diamino-2-(7-fluoro-1-(2-fluorobenzyl)-1H-indazol-3-yl)pyrimidin-5-yl)carbamate], the crystal form transformation entry in data set [1] is reported as “transform into Crystal form II”.
For the molecule `COC(=O)Nc1c(N)nc(-c2nn(Cc3ccccc3F)c3c(F)cccc23)nc1N` [Crystal Form II, methyl (4,6-diamino-2-(7-fluoro-1-(2-fluorobenzyl)-1H-indazol-3-yl)pyrimidin-5-yl)carbamate], the Outward entry was “Off-white” in data set [2] (colour); “Pale yellow” in data set [4]; “Off-white” in data set [5]; “Off-white” in data set [6] (setting [10]); “Off-white” in data set [6] (setting [11]); “Off-white” in data set [7] (0 day). In addition, the Outward result in data set [7] (1 month), in data set [7] (2 month) and in data set [7] (3 month) was “Off-white” in each case. For the same molecule, the remaining at 4320 h in data set [2] (solid storage, 75% rh, read-out: Purity (%)) was found to be 99.9%. For the same molecule, in data set [1] (in contrast to the other crystal forms), the “stability of the crystal structure” value was “less prone to polymorphic transition”. Also, the solubility entry in “Solubility test (HPLC)” is given as “good solubility”. Also, the “Weight Gain at 60% RH (%)” value in data set [3] (DVS, 25°C, 60% RH) was found to be 0.02%. For the same molecule, in data set [3] (DVS, 25°C, 80% RH), the “Weight Gain at 80% RH (%)” value worked out at 0.05%. In data set [3] (DVS, 25°C, 95% RH), the “Weight Gain at 95% RH (%)” value is on record as 0.18%. Besides, the the hygroscopicity feature result in data set [3] (classification per Chinese Pharmacopoeia 2020, 25°C ± 1°C, 80% ± 2% RH) was “no or negligible hygroscopicity”. Also, in data set [3] (under high humidity conditions), the deliquescence result was “not prone to deliquescence”. Moreover, the remaining at 720 h in data set [4] (solid storage, light exposure, visible light 4500 lx ± 500 lx and UV light, HPLC, read-out: Purity (%)) turned out to be 99.9%; in data set [5] (solid storage, 90% rh, HPLC, read-out: Purity (%)), 100%; in [6] (solid storage, High-Temperature, 60°C ± 2°C, 30 day, HPLC, read-out: Purity (%)) it was 99.9%; in [7] (solid storage, 75% rh, 1 month, read-out: Purity (%)), 100%. Moreover, the “Purity (%)” value is on record as 99.97% in [6] (setting [9]) and 99.96% in [7] (0 day). Besides, the stability entry in data set [6] (conclusion over various storage conditions (high-temperature, high-humidity, light-exposure and accelerated tests)) is listed as “excellent stability”. Also, the remaining at 1440 h in data set [7] (solid storage, 75% rh, 2 month, read-out: Purity (%)) was determined as 100%. Further, the remaining at 2160 h in data set [7] (solid storage, 75% rh, 3 month, read-out: Purity (%)) amounted to 100%. Besides, the pharmacokinetic properties entry in data set [8] was “excellent pharmacokinetic properties”.
In the case of `COC(=O)Nc1c(N)nc(-c2nn(Cc3ccccc3F)c3c(F)cccc23)nc1N` [Crystal Form V, methyl (4,6-diamino-2-(7-fluoro-1-(2-fluorobenzyl)-1H-indazol-3-yl)pyrimidin-5-yl)carbamate], the crystal form transformation entry in data set [1] was “transform into Crystal form II”. Besides, the polymorphic transition result in data set [1] (under high temperature conditions) is recorded as “undergoes polymorphic transition”. Further, the Outward entry in [4] is “Pale yellow”; in data set [5], “Off-white”; in data set [6] (setting [10]), “Off-white”; in data set [6] (setting [11]) it was “Off-white”. In addition, the “Purity (%)” value in data set [4] (visible light 4500 lx ± 500 lx and UV light, HPLC, 43200 min) worked out at 99.36%; in data set [5] (HPLC, 43200 min), 99.51%; in [6] (setting [9]), 99.52%; in data set [6] (High-Temperature, 60°C ± 2°C, 30 day, HPLC, 43200 min), 99.47%.
